Measurements reported in patent publication US20110144079A1, “ANTIMICROBIAL SYSTEM” (priority 2008, published 2011).
Like-named read-outs stand apart in the source and are kept apart here. Marks after values point to notes of the source that are not given here.

Assays:
Experiment in all cases: Broth microdilution MIC/MBC
Format in all cases: cell-based
S. aureus ATCC 29213 = conditions: Staphylococcus aureus, ATCC29213; for MBC: S. aureus ATCC 29213, 99.9% killing; for MIC: S. aureus ATCC 29213, 24 h at 37° C.
How it was run: (§1)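 Imidazolium salts two-fold diluted in Mueller-Hinton broth over 0.0000625-1% w/v, inoculum 2×10^5 CFU/ml, aerobic 24 h at 37° C., per NCCLS. MBC: 20 μl from no-growth wells plated on MHA, 24 h, scored for 99.9% killing.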

E. coli NCTC 8196 = conditions: Escherichia coli, NCTC8196; for MBC: E. coli NCTC 8196, 99.9% killing; for MIC: E. coli NCTC 8196, 24 h at 37° C.
How it was run: as §1

[1] = tested on: S. epidermidis ATCC 35984; conditions: for MIC: S. epidermidis ATCC 35984, 24 h at 37° C.; for MBC: ATCC35984, S. epidermidis ATCC 35984, 99.9% killing
How it was run: as §1

B. cenocepacia J2315 = conditions: Burkholderia cenocepacia; for MBC: B. cenocepacia J2315, 99.9% killing; for MIC: B. cenocepacia J2315, 24 h at 37° C.
How it was run: as §1

P. mirabilis NCTC 12442 = conditions: Proteus mirabilis, NCTC12442; for MBC: P. mirabilis NCTC 12442, 99.9% killing; for MIC: P. mirabilis NCTC 12442, 24 h at 37° C.
How it was run: as §1

E-MRSA 15 = conditions: for MBC: E-MRSA 15, 99.9% killing; for MIC: E-MRSA 15, 24 h at 37° C.
How it was run: as §1

K. aerogenes NCTC 7427 = conditions: Klebsiella aerogenes, NCTC7427; for MBC: K. aerogenes NCTC 7427, 99.9% killing; for MIC: K. aerogenes NCTC 7427, 24 h at 37° C.
How it was run: as §1

P. aeruginosa PA01 = conditions: for MIC: P. aeruginosa PA01, 24 h at 37° C.; for MBC: P. aeruginosa PA01, 99.9% killing
How it was run: as §1

C. tropicalis NCTC 7393 = conditions: Candida tropicalis, NCTC7393; for MBC: C. tropicalis NCTC 7393, 99.9% killing; for MIC: C. tropicalis NCTC 7393, 24 h at 37° C.
How it was run: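 NCCLS broth microdilution; MHB; salts 0.0000625–1% w/v, 2-fold; final inoculum 2×10^5 CFU/ml; 24 h, 37 °C, aerobic. MBC = 99.9% kill on MHA subculture of no-growth wells, 24 h.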

[2] = tested on: S. epidermidis ATCC 12228; conditions: Staphylococcus epidermidis, ATCC12228; for MBC: S. epidermidis ATCC 12228, 99.9% killing; for MIC: S. epidermidis ATCC 12228, 24 h at 37° C.
How it was run: as §1

[3] = Staphylococcus epidermidis, ATCC35984, 24 h
[4] = Pseudomonas aeruginosa, PA01, 24 h, read-out: MIC

MIC (S. aureus ATCC 29213) | MIC (E. coli NCTC 8196) | MIC [1, 3] | MIC (B. cenocepacia J2315) | MIC (P. mirabilis NCTC 12442) | MIC (E-MRSA 15) | MIC (K. aerogenes NCTC 7427) | MIC (P. aeruginosa PA01; [4]) | MIC (C. tropicalis NCTC 7393) | MIC [2] | SMILES | MBC (S. aureus ATCC 29213) | MBC (E. coli NCTC 8196) | MBC ([1]; Staphylococcus epidermidis) | MBC (B. cenocepacia J2315) | MBC (P. mirabilis NCTC 12442) | MBC (E-MRSA 15) | MBC (K. aerogenes NCTC 7427) | MBC (P. aeruginosa PA01; Pseudomonas aeruginosa) | MBC (C. tropicalis NCTC 7393) | MBC [2] | other results
40 µM | 321 µM | 40 µM | 1290 µM | 1290 µM | 40 µM | 643 µM | > 1290 µM | 321 µM | 40 µM | CCCCCCCCCCn1cc[n+](C)c1.[Cl-] [C10MIMCl, 1-decyl-3-methylimidazolium chloride] | 643 µM | 1290 µM | 160 µM | 1290 µM | 1290 µM | 321 µM | 1290 µM | > 1290 µM | 321 µM | 644 µM | MIC (P. aeruginosa PA01; listed as 1-alkyl-3-methylimidazolium chlorides 10): 2415* μM
18 µM | 73 µM | 36 µM | 290 µM | 580 µM | 18 µM | 73 µM | 580 µM | 73 µM | 36 µM | CCCCCCCCCCCCn1cc[n+](C)c1.[Cl-] [C12MIMCl, 1-dodecyl-3-methylimidazolium chloride] | 36 µM | 73 µM | 73 µM | 580 µM | 1160 µM | 73 µM | 145 µM | 1160 µM | 73 µM | 145 µM | –
16 µM | 33 µM | 7.7 µM | 132 µM | 264 µM | 16 µM | 33 µM | 264 µM | 66 µM | 7.7 µM | CCCCCCCCCCCCCCn1cc[n+](C)c1.[Cl-] [C14MIMCl, 1-tetradecyl-3-methylimidazolium chloride] | 66 µM | 33 µM | 33 µM | 264 µM | 530 µM | 66 µM | 66 µM | 264 µM | 132 µM | 33 µM | MIC ([1]; listed as 1-alkyl-3-methylimidazolium chlorides 14): 7.75 µM
